According to ChEMBL document CHEMBL2074417, “The bisbenzylisoquinoline alkaloids, tetrandine and fangchinoline, enhance the cytotoxicity of multidrug resistance-related drugs via modulation of P-glycoprotein” (Anticancer Drugs, 1998):

Experiments:
[1] = target: T1, ATP-dependent translocase ABCB1 (Homo sapiens, UniProt P08183); assay: TP_TRANSPORTER: increase in Rhodamine 123 intracellular accumulation (R123: 4 uM, Tetrandine: 3 uM) in HCT15 cells; assay type: functional, cell-based; settings: hct-15, 3 µM
[2] = target: T1, ATP-dependent translocase ABCB1; assay: TP_TRANSPORTER: increase in Rhodamine 123 intracellular accumulation (R123: 4 uM, Fangchinoline: 3 uM) in HCT15 cells; assay type: functional, cell-based; settings: hct-15, 3 µM

T1 sequence (P08183 whole entry): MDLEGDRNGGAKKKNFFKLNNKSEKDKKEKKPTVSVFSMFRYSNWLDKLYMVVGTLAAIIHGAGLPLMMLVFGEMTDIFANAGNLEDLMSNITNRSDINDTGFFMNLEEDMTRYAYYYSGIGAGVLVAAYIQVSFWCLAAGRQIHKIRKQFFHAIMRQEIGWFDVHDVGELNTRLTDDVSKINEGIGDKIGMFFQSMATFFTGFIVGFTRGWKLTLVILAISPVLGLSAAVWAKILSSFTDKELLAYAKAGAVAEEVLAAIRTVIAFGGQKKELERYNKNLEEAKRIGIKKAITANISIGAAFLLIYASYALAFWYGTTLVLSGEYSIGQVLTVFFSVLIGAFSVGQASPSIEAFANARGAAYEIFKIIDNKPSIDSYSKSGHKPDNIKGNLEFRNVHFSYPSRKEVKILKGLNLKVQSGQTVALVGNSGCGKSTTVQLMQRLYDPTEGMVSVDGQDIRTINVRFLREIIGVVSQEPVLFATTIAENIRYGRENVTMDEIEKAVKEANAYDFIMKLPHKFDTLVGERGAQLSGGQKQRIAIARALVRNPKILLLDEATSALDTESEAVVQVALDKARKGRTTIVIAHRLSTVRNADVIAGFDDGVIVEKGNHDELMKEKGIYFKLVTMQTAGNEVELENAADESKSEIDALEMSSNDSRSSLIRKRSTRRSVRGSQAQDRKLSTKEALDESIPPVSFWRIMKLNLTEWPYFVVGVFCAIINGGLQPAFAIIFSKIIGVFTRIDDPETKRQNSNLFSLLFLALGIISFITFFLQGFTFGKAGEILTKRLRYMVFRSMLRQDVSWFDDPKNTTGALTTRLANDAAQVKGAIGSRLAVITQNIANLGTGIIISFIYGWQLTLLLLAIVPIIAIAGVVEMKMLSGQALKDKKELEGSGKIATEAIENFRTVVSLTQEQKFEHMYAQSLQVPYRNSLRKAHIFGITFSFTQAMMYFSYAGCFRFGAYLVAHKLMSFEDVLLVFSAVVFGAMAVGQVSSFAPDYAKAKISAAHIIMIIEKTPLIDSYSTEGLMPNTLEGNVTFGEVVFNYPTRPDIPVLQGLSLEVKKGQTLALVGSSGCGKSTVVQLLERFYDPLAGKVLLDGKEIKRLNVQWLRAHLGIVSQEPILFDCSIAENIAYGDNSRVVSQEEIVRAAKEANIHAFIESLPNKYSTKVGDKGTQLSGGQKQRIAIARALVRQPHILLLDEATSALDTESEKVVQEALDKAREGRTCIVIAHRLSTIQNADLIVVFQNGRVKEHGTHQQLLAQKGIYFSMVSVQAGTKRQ

| SMILES | Activity [1] | Activity [2] |
| --- | --- | --- |
| COc1ccc2cc1Oc1ccc(cc1)C[C@H]1c3cc(c(OC)cc3CCN1C)Oc1c(OC)c(OC)cc3c1[C@H](C2)N(C)CC3 [FANCHININ] | 2.5 fold |  |
| COc1ccc2cc1Oc1ccc(cc1)C[C@H]1c3cc(c(OC)cc3CCN1C)Oc1c(O)c(OC)cc3c1[C@H](C2)N(C)CC3 [FANGCHINOLINE] |  | 2.4 fold |
